The values below come from patent US11053234B2 (GlaxoSmithKline Intellectual Property Development Limited, priority 2016, dated 2021).

Structures can show the parent of a compound that is named as a salt.

In this experiment the target is T1, haematopoietic prostaglandin D synthase (H-PGDS) (Homo sapiens, UniProt O60760).
T1 construct: Full length human H-PGDS cDNA (Invitrogen Ultimate ORF 10H13026) was amplified by PCR; 6-His (N); TEV protease cleavage site (N); made in house; host or cells: E. coli BL21 (DE3*), vector pET22b+
T1 sequence (O60760 whole entry): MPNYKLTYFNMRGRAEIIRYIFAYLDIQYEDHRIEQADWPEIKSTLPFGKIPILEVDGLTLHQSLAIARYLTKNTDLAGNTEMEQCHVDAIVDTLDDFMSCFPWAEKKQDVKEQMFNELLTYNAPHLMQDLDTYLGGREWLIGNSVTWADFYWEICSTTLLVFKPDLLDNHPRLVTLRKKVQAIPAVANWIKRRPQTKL
The experiment is described as follows: H-PGDS RapidFire high throughput mass spectrometry assay (conversion of PGH2 to PGD2). Conditions: 10 nM H-PGDS, PGH2 formed in situ by COX-2 from arachidonic acid; read-out: Potency Range (mean pIC50) (converted). The format is biochemical. In a few lines: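 PGH2 substrate generated in situ by COX-2 (full-length human, FLAG-tagged, Sf9-expressed) from arachidonic acid at ˜10 μM, then converted by full-length human His-tagged H-PGDS (E. coli-expressed). RapidFire SPE–triple quadrupole MS measured PGD2 against PGF2α as substrate surrogate to give percent conversion.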
Turning to `CC(C)(O)[C@H]1CC[C@H](NC(=O)[C@H]2C[C@H](Oc3ccccc3OC(F)(F)F)C2)CC1` [Example 259, (trans)-N-((trans)-4-(2-Hydroxypropan-2-yl)cyclohexyl)-3-(2-(trifluoromethoxy)phenoxy)cyclobutanecarboxamide], the IC50 was 100 to 1000 nM. The same measure for `COc1cc(F)ccc1O[C@H]1C[C@H](C(=O)N[C@H]2CC[C@H](C(C)(C)O)CC2)C1` [Example 277, (trans)-3-(4-Fluoro-2-methoxyphenoxy)-N-((trans)-4-(2-hydroxypropan-2-yl)cyclohexyl)cyclobutanecarboxamide]: 100 to 1000 nM; for `CCOC(=O)NC12CC(NC(=O)[C@H]3C[C@H](Oc4cccc5scnc45)C3)(C1)C2` [Example 319, Ethyl (3-((trans)-3-(benzo[d]thiazol-4-yloxy)cyclobutane-1-carboxamido)bicyclo[1.1.1]pentan-1-yl)carbamate]: 10 to 79.4 nM; for `COCCO[C@H]1CC[C@H](NC(=O)N2CC(Oc3cccc4scnc34)C2)CC1` [Example 59, 3-(Benzo[d]thiazol-4-yloxy)-N-((trans)-4-(2-methoxyethoxy)cyclohexyl)azetidine-1-carboxamide]: 10 to 79.4 nM. For the compound `CC(C)(O)[C@H]1CC[C@H](NC(=O)[C@H]2C[C@H](Oc3cccc4cncnc34)C2)CC1` [Example 296, (trans)-N-((trans)-4-(2-Hydroxypropan-2-yl)cyclohexyl)-3-(quinazolin-8-yloxy)cyclobutanecarboxamide], the IC50 is 100 to 1000 nM.

With `Cc1cc(NC(=O)[C@H]2C[C@H](Oc3cccc4scnc34)C2)ncn1` [Example 307, (trans)-3-(Benzo[d]thiazol-4-yloxy)-N-(6-methylpyrimidin-4-yl)cyclobutanecarboxamide], the IC50 is 10 to 79.4 nM. For the compound `O=C(Nc1ncc(CO)s1)[C@H]1C[C@H](Oc2cccc3cccnc23)C1` [Example 210, (trans)-N-(5-(Hydroxymethyl)thiazol-2-yl)-3-(quinolin-8-yloxy)cyclobutanecarboxamide], the IC50 is 10 to 79.4 nM. `COc1ccc(F)cc1O[C@H]1C[C@H](C(=O)N[C@H]2CC[C@H](NC(C)C(F)(F)F)CC2)C1` (mixture of isomers) [Example 161, Racemic (trans)-3-(5-Fluoro-2-methoxyphenoxy)-N-((trans)-4-((1,1,1-trifluoropropan-2-yl)amino)cyclohexyl)cyclobutanecarboxamide]: the IC50 is 10 to 79.4 nM.

On to `CC(C)(O)C(=O)N1CCC(NC(=O)[C@H]2C[C@H](Oc3cc(F)cc4scnc34)C2)CC1` [Example 303, (trans)-3-((6-Fluorobenzo[d]thiazol-4-yl)oxy)-N-(1-(2-hydroxy-2-methylpropanoyl)piperidin-4-yl)cyclobutanecarboxamide], for which the IC50 is 100 to 1000 nM. Regarding `O=C(N[C@H]1CC[C@H](N2CCCS2(=O)=O)CC1)N1CC(Oc2cccc3scnc23)C1` [Example 101, 3-(Benzo[d]thiazol-4-yloxy)-N-((trans)-4-(1,1-dioxidoisothiazolidin-2-yl)cyclohexyl)azetidine-1-carboxamide], the IC50 was 10 to 79.4 nM. As to `O=C(NC1CCN(c2ncc(F)cn2)CC1)N1CC(Oc2cc(F)cc3scnc23)C1` [Example 118, 3-((6-Fluorobenzo[d]thiazol-4-yl)oxy)-N-(1-(5-fluoropyrimidin-2-yl)piperidin-4-yl)azetidine-1-carboxamide], the IC50 was 10 to 79.4 nM.

Take `O=C(N[C@H]1CC[C@H](N[C@@H](CO)C(F)(F)F)CC1)N1CC(Oc2cccc3scnc23)C1` [Example 53, 3-(Benzo[d]thiazol-4-yloxy)-N-((trans)-4-(((S)-1,1,1-trifluoro-3-hydroxypropan-2-yl)amino)cyclohexyl)azetidine-1-carboxamide]: the IC50 was 10 to 79.4 nM. Regarding `CC(C)(O)[C@H]1CC[C@H](NC(=O)[C@H]2C[C@H](Oc3cccc(Br)c3)C2)CC1` [Example 228, (trans)-3-(3-Bromophenoxy)-N-((trans)-4-(2-hydroxypropan-2-yl)cyclohexyl)cyclobutanecarboxamide], the IC50 was 100 to 1000 nM. Take `CC(C)(O)[C@H]1C[C@H](NC(=O)[C@H]2C[C@H](Oc3cccc4cccnc34)C2)C1` [Example 223, (trans)-N-((trans)-3-(2-Hydroxypropan-2-yl)cyclobutyl)-3-(quinolin-8-yloxy)cyclobutanecarboxamide]: the IC50 was 100 to 1000 nM.

As to `O=C1CC(NC(=O)[C@H]2C[C@H](Oc3cccc4scnc34)C2)c2ccccc2N1` (mixture of isomers) [Example 84, Racemic (trans)-3-(Benzo[d]thiazol-4-yloxy)-N-(2-oxo-1,2,3,4-tetrahydroquinolin-4-yl)cyclobutanecarboxamide], the IC50 was 10 to 79.4 nM. Consider `CN/C(=N\C#N)N1CC(NC(=O)[C@H]2C[C@H](Oc3cccc4scnc34)C2)C1` [Example 65, (trans)-3-(Benzo[d]thiazol-4-yloxy)-N-(1-((E)-N′-cyano-N-methylcarbamimidoyl)azetidin-3-yl)cyclobutanecarboxamide], for which the IC50 is 100 to 1000 nM. For the compound `CC(C)(O)[C@H]1CC[C@H](NC(=O)[C@H]2C[C@H](Oc3ccc(F)c4cccnc34)C2)CC1` [Example 292, (trans)-3-((5-Fluoroquinolin-8-yl)oxy)-N-((trans)-4-(2-hydroxypropan-2-yl)cyclohexyl)cyclobutanecarboxamide], the IC50 was 100 to 1000 nM.

In the case of `CC(=O)c1cnc(NC(=O)[C@H]2C[C@H](Oc3cccc4cccnc34)C2)s1` [Example 202, (trans)-N-(5-Acetylthiazol-2-yl)-3-(quinolin-8-yloxy)cyclobutanecarboxamide], the IC50 is 10 to 79.4 nM. With `COc1ccc(F)cc1O[C@H]1C[C@H](C(=O)N[C@H]2CC[C@H](N3CCOCC3=O)CC2)C1` [Example 151, (trans)-3-(5-Fluoro-2-methoxyphenoxy)-N-((trans)-4-(3-oxomorpholino)cyclohexyl)cyclobutanecarboxamide], the IC50 is 100 to 1000 nM.

Turning to `O=C(Nc1nnc(C2CC2)s1)[C@H]1C[C@H](Oc2cccc3cccnc23)C1` [Example 199, (trans)-N-(5-Cyclopropyl-1,3,4-thiadiazol-2-yl)-3-(quinolin-8-yloxy)cyclobutanecarboxamide], the IC50 is 10 to 79.4 nM. On to `CC1(NC(=O)[C@H]2C[C@H](Oc3cc(F)cc4scnc34)C2)CN(c2cccnn2)C1` [Example 237, (trans)-3-((6-Fluorobenzo[d]thiazol-4-yl)oxy)-N-(3-methyl-1-(pyridazin-3-yl)azetidin-3-yl)cyclobutanecarboxamide], for which the IC50 was 100 to 1000 nM. For `O=C(N[C@H]1CC[C@H](Nc2ncccn2)CC1)[C@H]1C[C@H](Oc2cc(F)ccc2OC(F)F)C1` [Example 10, (trans)-3-(2-(Difluoromethoxy)-5-fluorophenoxy)-N-((trans)-4-(pyrimidin-2-ylamino)cyclohexyl)cyclobutanecarboxamide], the IC50 is 10 to 79.4 nM.

With `CNC(=O)c1csc(NC(=O)[C@H]2C[C@H](Oc3cccc4cccnc34)C2)n1` [Example 196, N-Methyl-2-((trans)-3-(quinolin-8-yloxy)cyclobutanecarboxamido)thiazole-4-carboxamide, trifluoroacetic acid salt], the IC50 is 10 to 79.4 nM. In the case of `COC(=O)N1CCCC(NC(=O)N2CC(Oc3cccc4scnc34)C2)C1` (racemic) [Example 93, Racemic Methyl 3-(3-(benzo[d]thiazol-4-yloxy)azetidine-1-carboxamido)piperidine-1-carboxylate], the IC50 is 100 to 1000 nM.
